Data: PMC12751141, “Disrupting α-Synuclein–ClpP interaction restores mitochondrial function and attenuates neuropathology in Parkinson’s disease models” (Molecular Neurodegeneration, 2025)

How the values were obtained:
αSyn oligomer = αSyn oligomer ELISA, Tet-inducible αSyn SH-SY5Y cells; type: cell-based, human; details: 10 µM, two days, vs TAT, n = 4
Protocol: After one day incubation with doxycycline (1µM), αSyn tet-on inducible expression SHSY5Y cells were treated with TAT or CS2 peptides at 10 µM for another two days. The level of αSyn monomer released into culture medium was measured using LEGEND MAX human αSyn ELISA kit (448607, Biolegend). The level of extracellular and intracellular αSyn oligomers was measured using human alpha synuclein oligomer ELISA kit (MBS730762, Mybioresource).

[1] = test system: A53T-αSyn PD patient iPSC-derived DA neurons; test: Immunofluorescence / fractionation western blot in A53T-αSyn iPSC-derived (DA) neurons; type: cell-based, human; details: 1 µM, five days
Description: PD iPS cells lines (αSyn A53T, NN0004337, donor) and its isogenic corrected control line (NN0004344) were obtained from RUCDR Infinite Biologics. The iPS cells were differentiated into dopaminergic neuron-enriched neuronal culture with the protocol described previously. Briefly, iPS cell colonies were disassociated with accutase (Invitrogen), plated onto 6-well plates pre-coated with 2.5% Matrigel (BD Biosciences) and allowed to reach 80% confluence in mTeSR medium (Stem Cell Technology). For the first 10 days, cells were treated with SB431542 (10 µM; Tocris Bioscience) and Noggin (100 ng/ml) in Neural Media (NM) with FGF2 ([…]) and EGF ([…]). NM media contained: Neurobasal and DMEM/F12 (1:1), B-27 Supplement Minus Vitamin A (50×, Invitrogen), N2 Supplement (100X, Invitrogen), GlutaMAX (Invitrogen, 100×), 100 units/ml penicillin and 100 µg/ml streptomycin (Fisher); for the next 4 days, cells were treated with human recombinant Sonic hedgehog (SHH, 200 ng/ml) in neuronal differentiation medium. Neuronal differentiation medium contained Neurobasal and DMEM/F12 (1:3), B27, N2, GlutaMax and PS. In the following 3 days, cells were switched to BDNF (20 ng/ml), ascorbic acid (200 µM, Sigma-Alderich), SHH (200 ng/ml), and FGF8b (100 ng/ml) in neuronal differentiation medium. Thereafter, cells were treated with BDNF, ascorbic acid, GDNF (10 ng/ml), TGF-b (1 ng/ml), and cAMP ([…], Sigma-Aldrich). All growth factors were purchased from Pepro Tech (Rocky Hill, NJ, USA). After 20 days of induction, neurons were treated daily with TAT or CS2 peptides at 1µM and were fixed for immunostaining at 26 days of induction. The imaging was observed by confocal microscope (Fluoview FV3000, Olympus).
Cells were grown on coverslips, fixed with 4% paraformaldehyde for 20 min at room temperature, permeabilized with 0.1% Triton X-100 in PBS, and blocked with 2% normal goat serum. The cells were incubated with the indicated primary antibodies overnight at 4℃. After washing with PBS, the cells were incubated with Alexa Fluor 488/568 or 405/568 secondary antibody (1:500; Thermo Fisher Scientific) for 2 h at room temperature. The nuclei were counterstained with DAPI (1:10000; Sigma-Aldrich). Images of the staining were acquired using a Fluoview FV3000 confocal microscope (Olympus).
Fig. 6 CS2 treatment is protective in DA neurons derived from PD patient iPSCs. (A) Representative images of MitoTracker staining and ClpP-αSyn PLA in A53T αSyn or isogenic control (ISO) iPSCs-derived neurons (scale bar = 30 μm). (B) Representative images of ClpP-αSyn PLA in A53T αSyn or ISO iPSCs-derived neurons, which were treated with TAT or CS2 peptide (scale bar = 30 μm). […] (C) Representative blots of co-immunoprecipitation assay assessing ClpP-αSyn in A53T αSyn or ISO iPSCs-derived neurons, which were treated with TAT or CS2 peptide. […] (D) Representative images of ClpP staining in […] positive (TH^+) iPSCs-derived DA neurons treated with TAT or CS2 peptide (scale bar = 30 μm). […] (E) Representative images of pS129-αSyn (pS129) staining in TH^+ iPSCs-derived DA neurons treated with TAT or CS2 peptide (scale bar = 30 μm). […] (F) Representative images of PSD95, Synapsin1 (SYN1) and MAP2 staining in iPSCs-derived neurons treated with TAT or CS2 peptide (scale bar = 30 μm).
(C) Detergent soluble and insoluble fractions were extracted from iPSC-derived neurons and subjected for western blot analyses. Shown are the representative blots of 3 independent experiments.

αSyn–ClpP binding = test: Immunoprecipitation of recombinant ClpP and αSyn in vitro; design: species or system human; details: recombinant ClpP pre-incubated with peptide 30 min before αSyn; anti-ClpP IP; 3 independent experiments
Protocol: The human recombinant WT- (#S-1001-2), A53T- (#S-1001-2), ΔNAC- (#S-1015-1) and ΔC- (#S-1012-1) αSyn and FITC-αSyn (S-1113-2) were purchased from rPeptide. The human recombinant αSyn pre-formed fibrils (PFF) (Type 1) (SPR-322) and ATTO-594-PFF (SPR-322B-A594) were purchased from StressMarq Biosciences (Bioactivity has been widely validated via various approaches, e.g. TEM, ThT).
Cells or tissues were lysed in total lysis buffer (50mM Tris-HCl, pH 7.5, 150mM NaCl, 1% Triton X-100, and protease inhibitor). Total protein lysates (800 µg) were incubated with the indicated antibodies overnight at 4 °C followed by the addition of protein A/G beads (sc-2003, Santa Cruz) for 2 h at 4 °C. Various recombinant αSyn and Clpp (500 ng) were incubated in in vitro interaction buffer (20mM Tris-HCl pH 7.5, 100mM KCl, 2mM MgCl2 and 0.1% Triton-X100) for 30 min at room temperature, and then incubated with indicated antibodies overnight at 4 °C followed by the addition of protein A/G beads for 2 h at 4 °C. The beads with immuno-precipitates were pulled down at 4000 g and washed four times with total lysis buffer/in vitro interaction buffer in the presence of 0.1% Triton X-100 and were analyzed by western blot analysis.

ClpP (HEK293T cells) = test: ClpP protein level, western blot, HEK293T cells; type: cell-based; details: WT or A53T αSyn overexpression; 30 min pretreatment; n = 4–5 (CS1: n = 4)
[2] = A53T-αSyn iPSC neurons, n = 6–7

Structure (SMILES): CC(C)[C@H](NC(=O)CNC(=O)CNC(=O)CCCCCNC(=O)[C@H](CCCNC(=N)N)NC(=O)[C@H](CCCNC(=N)N)NC(=O)[C@H](CCCNC(=N)N)NC(=O)[C@H](CCC(N)=O)NC(=O)[C@H](CCCNC(=N)N)NC(=O)[C@H](CCCNC(=N)N)NC(=O)[C@H](CCCCN)NC(=O)[C@H](CCCCN)NC(=O)[C@H](CCCNC(=N)N)NC(=O)CNC(=O)[C@@H](N)Cc1ccc(O)cc1)C(=O)N[C@H](C(=O)N[C@H](C(=O)N[C@@H](C)C(=O)O)[C@@H](C)O)C(C)C [CS2, TAT-C6-GGVVTA]
- extracellular αSyn oligomer (αSyn oligomer): decreased levels
- intracellular αSyn oligomer (αSyn oligomer): decreased levels
- insoluble αSyn accumulation, iPSC neurons ([1]; 3 independent experiments): reduced the expression of pS129-αSyn and the accumulation of insoluble αSyn
- pS129-αSyn expression, iPSC DA neurons ([1]; n = 5–7): reduced the expression of pS129-αSyn
- ClpP protein level in TH+ DA neurons ([1]; n = 6): significantly restored ClpP protein levels
- PSD95 density [1, 2]: restored the density of both PSD95 and Synapsin1
- Synapsin1 density [1, 2]: restored the density of both PSD95 and Synapsin1
- αSyn–ClpP binding, recombinant (αSyn–ClpP binding): significantly reduced αSyn–ClpP binding
- ClpP protein level, HEK293T (ClpP (HEK293T cells)): significantly restored ClpP protein levels
